ChEMBL document CHEMBL3352227, “Synthesis, antimycobacterial and antibacterial evaluation of l-[(1R, 2S)-2-fluorocyclopropyl]fluoroquinolone derivatives containing an oxime functional moiety” (Eur J Med Chem, 2014)
≈ marks a conversion by molar mass, not a printed value.

Experiments:
Assay type in all cases: functional
[1] = tested on: Mycobacterium tuberculosis; assay: Antimycobacterial activity against Mycobacterium tuberculosis H37Rv ATCC 27294 by MABA method
Escherichia coli [2] = assay: Antibacterial activity against Escherichia coli ATCC 25922 after 18 to 24 hrs by standard twofold serial dilution method
Escherichia coli [3] = assay: Antibacterial activity against Escherichia coli 12-1 after 18 to 24 hrs by standard twofold serial dilution method
Escherichia coli [4] = assay: Antibacterial activity against extended-spectrum beta-lactamase producing Escherichia coli 12-2 after 18 to 24 hrs by standard twofold serial dilution method
Escherichia coli [5] = assay: Antibacterial activity against extended-spectrum beta-lactamase producing Escherichia coli 12-3 after 18 to 24 hrs by standard twofold serial dilution method
Escherichia coli [6] = assay: Antibacterial activity against extended-spectrum beta-lactamase producing Escherichia coli 12-14 after 18 to 24 hrs by standard twofold serial dilution method
Escherichia coli [7] = assay: Antibacterial activity against extended-spectrum beta-lactamase producing Escherichia coli 12-15 after 18 to 24 hrs by standard twofold serial dilution method
Klebsiella pneumoniae [8] = assay: Antibacterial activity against Klebsiella pneumoniae 12-1 after 18 to 24 hrs by standard twofold serial dilution method
Klebsiella pneumoniae [9] = assay: Antibacterial activity against Klebsiella pneumoniae 12-2 after 18 to 24 hrs by standard twofold serial dilution method
Klebsiella pneumoniae [10] = assay: Antibacterial activity against Klebsiella pneumoniae 12-4 after 18 to 24 hrs by standard twofold serial dilution method
Klebsiella pneumoniae [11] = assay: Antibacterial activity against extended-spectrum beta-lactamase producin Klebsiella pneumoniae 12-3 after 18 to 24 hrs by standard twofold serial dilution method
Klebsiella pneumoniae [12] = assay: Antibacterial activity against extended-spectrum beta-lactamase producin Klebsiella pneumoniae 12-4 after 18 to 24 hrs by standard twofold serial dilution method
Klebsiella pneumoniae [13] = assay: Antibacterial activity against extended-spectrum beta-lactamase producin Klebsiella pneumoniae 12-7 after 18 to 24 hrs by standard twofold serial dilution method
Klebsiella pneumoniae [14] = assay: Antibacterial activity against extended-spectrum beta-lactamase producin Klebsiella pneumoniae 12-14 after 18 to 24 hrs by standard twofold serial dilution method
Pseudomonas aeruginosa [15] = assay: Antibacterial activity against Pseudomonas aeruginosa 12-12 after 18 to 24 hrs by standard twofold serial dilution method
Pseudomonas aeruginosa [16] = assay: Antibacterial activity against Pseudomonas aeruginosa 12-14 after 18 to 24 hrs by standard twofold serial dilution method
Staphylococcus aureus [17] = assay: Antibacterial activity against Staphylococcus aureus ATCC 25923 after 18 to 24 hrs by standard twofold serial dilution method
Staphylococcus aureus [18] = assay: Antibacterial activity against methicillin-sensitive Staphylococcus aureus 12-1 after 18 to 24 hrs by standard twofold serial dilution method
Staphylococcus aureus [19] = assay: Antibacterial activity against methicillin-sensitive Staphylococcus aureus 12-2 after 18 to 24 hrs by standard twofold serial dilution method
Staphylococcus aureus [20] = assay: Antibacterial activity against methicillin-sensitive Staphylococcus aureus 12-4 after 18 to 24 hrs by standard twofold serial dilution method
Staphylococcus aureus [21] = assay: Antibacterial activity against methicillin-sensitive Staphylococcus aureus 12-5 after 18 to 24 hrs by standard twofold serial dilution method
Staphylococcus aureus [22] = assay: Antibacterial activity against methicillin-resistant Staphylococcus aureus 12-2 after 18 to 24 hrs by standard twofold serial dilution method
Staphylococcus aureus [23] = assay: Antibacterial activity against methicillin-resistant Staphylococcus aureus 12-4 after 18 to 24 hrs by standard twofold serial dilution method
Staphylococcus aureus [24] = assay: Antibacterial activity against methicillin-resistant Staphylococcus aureus 12-5 after 18 to 24 hrs by standard twofold serial dilution method
[25] = tested on: Staphylococcus epidermidis; assay: Antibacterial activity against methicillin-sensitive Staphylococcus epidermidis 12-1 after 18 to 24 hrs by standard twofold serial dilution method
[26] = tested on: Staphylococcus epidermidis; assay: Antibacterial activity against methicillin-sensitive Staphylococcus epidermidis 12-3 after 18 to 24 hrs by standard twofold serial dilution method
[27] = tested on: Staphylococcus epidermidis; assay: Antibacterial activity against methicillin-sensitive Staphylococcus epidermidis 12-6 after 18 to 24 hrs by standard twofold serial dilution method
[28] = tested on: Staphylococcus epidermidis; assay: Antibacterial activity against methicillin-sensitive Staphylococcus epidermidis 12-8 after 18 to 24 hrs by standard twofold serial dilution method
[29] = tested on: Staphylococcus epidermidis; assay: Antibacterial activity against methicillin-resistant Staphylococcus epidermidis 12-1 after 18 to 24 hrs by standard twofold serial dilution method
[30] = tested on: Staphylococcus epidermidis; assay: Antibacterial activity against methicillin-resistant Staphylococcus epidermidis 12-6 after 18 to 24 hrs by standard twofold serial dilution method
Streptococcus pneumoniae [31] = assay: Antibacterial activity against Streptococcus pneumoniae ATCC 49619 after 18 to 24 hrs by standard twofold serial dilution method
Streptococcus pneumoniae [32] = assay: Antibacterial activity against Streptococcus pneumoniae 12-18 after 18 to 24 hrs by standard twofold serial dilution method

| SMILES | MIC [1] [mg/L] | MIC (Escherichia coli [2]) [mg/L] | MIC (Escherichia coli [3]) [mg/L] | MIC (Escherichia coli [4]) [mg/L] | MIC (Escherichia coli [5]) [mg/L] | MIC (Escherichia coli [6]) [mg/L] | MIC (Escherichia coli [7]) [mg/L] | MIC (Klebsiella pneumoniae [8]) [mg/L] | MIC (Klebsiella pneumoniae [9]) [mg/L] | MIC (Klebsiella pneumoniae [10]) [mg/L] | MIC (Klebsiella pneumoniae [11]) [mg/L] | MIC (Klebsiella pneumoniae [12]) [mg/L] | MIC (Klebsiella pneumoniae [13]) [mg/L] | MIC (Klebsiella pneumoniae [14]) [mg/L] | MIC (Pseudomonas aeruginosa [15]) [mg/L] | MIC (Pseudomonas aeruginosa [16]) [mg/L] | MIC (Staphylococcus aureus [17]) [mg/L] | MIC (Staphylococcus aureus [18]) [mg/L] | MIC (Staphylococcus aureus [19]) [mg/L] | MIC (Staphylococcus aureus [20]) [mg/L] | further results |
| --- | --- | --- | --- | --- | --- | --- | --- | --- | --- | --- | --- | --- | --- | --- | --- | --- | --- | --- | --- | --- | --- |
| CO/N=C1/CN(c2cc3c(cc2F)c(=O)c(C(=O)O)cn3[C@@H]2C[C@@H]2F)[C@H]1CN | 0.5 (≈ 1.27 µM) | < 0.008 | 1 (≈ 2.55 µM) | 128 (≈ 326 µM) | 16 (≈ 40.8 µM) | 64 (≈ 163 µM) | > 128 | 0.125 (≈ 0.319 µM) | 0.125 (≈ 0.319 µM) | 0.015 (≈ 0.0382 µM) | 64 (≈ 163 µM) | 8 (≈ 20.4 µM) | 0.5 (≈ 1.27 µM) | 64 (≈ 163 µM) | 0.25 (≈ 0.637 µM) | 32 (≈ 81.6 µM) | 0.06 (≈ 0.153 µM) | 0.5 (≈ 1.27 µM) | 0.5 (≈ 1.27 µM) | 0.25 (≈ 0.637 µM) | MIC (Staphylococcus aureus [21]): 0.5 mg/L (≈ 1.27 µM); MIC (Staphylococcus aureus [22]): 32 mg/L (≈ 81.6 µM); MIC (Staphylococcus aureus [23]): 64 mg/L (≈ 163 µM); MIC (Staphylococcus aureus [24]): 32 mg/L (≈ 81.6 µM); MIC [25]: 0.25 mg/L (≈ 0.637 µM); MIC [26]: 0.25 mg/L (≈ 0.637 µM); MIC [27]: 0.25 mg/L (≈ 0.637 µM); MIC [28]: 0.125 mg/L (≈ 0.319 µM); MIC [29]: 8 mg/L (≈ 20.4 µM); MIC [30]: 4 mg/L (≈ 10.2 µM); MIC (Streptococcus pneumoniae [31]): 0.125 mg/L (≈ 0.319 µM); MIC (Streptococcus pneumoniae [32]): 0.5 mg/L (≈ 1.27 µM) |
| CCO/N=C1/CN(c2cc3c(cc2F)c(=O)c(C(=O)O)cn3[C@@H]2C[C@@H]2F)[C@H]1CN | 2 (≈ 4.92 µM) | 0.03 (≈ 0.0738 µM) | 0.125 (≈ 0.308 µM) | 32 (≈ 78.7 µM) | 8 (≈ 19.7 µM) | 16 (≈ 39.4 µM) | 128 (≈ 315 µM) | 0.06 (≈ 0.148 µM) | 0.06 (≈ 0.148 µM) | 0.06 (≈ 0.148 µM) | 32 (≈ 78.7 µM) | 8 (≈ 19.7 µM) | 0.5 (≈ 1.23 µM) | 32 (≈ 78.7 µM) | 0.5 (≈ 1.23 µM) | 32 (≈ 78.7 µM) | 0.03 (≈ 0.0738 µM) | 0.125 (≈ 0.308 µM) | 0.06 (≈ 0.148 µM) | 0.06 (≈ 0.148 µM) | MIC (Staphylococcus aureus [21]): 0.125 mg/L (≈ 0.308 µM); MIC (Staphylococcus aureus [22]): 16 mg/L (≈ 39.4 µM); MIC (Staphylococcus aureus [23]): 32 mg/L (≈ 78.7 µM); MIC (Staphylococcus aureus [24]): 16 mg/L (≈ 39.4 µM); MIC [25]: 0.125 mg/L (≈ 0.308 µM); MIC [26]: 0.5 mg/L (≈ 1.23 µM); MIC [27]: 0.125 mg/L (≈ 0.308 µM); MIC [28]: 2 mg/L (≈ 4.92 µM); MIC [29]: 4 mg/L (≈ 9.84 µM); MIC [30]: 8 mg/L (≈ 19.7 µM); MIC (Streptococcus pneumoniae [31]): 0.06 mg/L (≈ 0.148 µM); MIC (Streptococcus pneumoniae [32]): 1 mg/L (≈ 2.46 µM) |
